According to patent US20260034277A1, “SYSTEMS AND METHODS FOR PATHOGEN INACTIVATION OF BLOOD PRODUCTS” (Cerus Corporation, priority 2024, published 2026):

Experiments:
[1] = Residual amotosalen (S-59) pre- and post-UVA in treated platelets, HPLC, manual dosing; assay type: physicochemical; details: for Post-UVA S-59: platelets 47% plasma/53% PAS
Procedure: Multiple studies were performed to determine the level of residual compound remaining after photochemical treatment of platelets with a psoralen for pathogen inactivation. More specifically, the studies were performed using a range of platelet volumes (e.g., 200 mL-450 mL; 50 mL volume increments) and using a single initial input concentration of the psoralen compound, amotosalen (S-59) by changing input volume. For each volume tested, units of platelets, prepared in 47% plasma/53% PAS, were pooled and split into two to three individual units, each in an illumination container of an INTERCEPT® Blood System processing set. The individual units were each dosed with amotosalen from an initial starting concentration (e.g., stock solution) at a volume needed to achieve a final 70 μM target concentration for each platelet volume, mixed well, and subjected to illumination with UVA light. The doses of UVA light tested for each volume included, for example, one or more light doses ranging from 2.5 J/cm^2 to 6.5 J/cm^2. (e.g., 2.5-4.5 J/cm^2 for 200 mL, 3.5-4.0 J/cm^2 for 250 mL 4.5-6.5 J/cm^2 for 300 mL, 5.2 J/cm^2 for 350 mL, 5.5-6.5 J/cm^2 for 400 mL, 6.4-6.5 J/cm^2 for 450 mL). UVA treatment was performed in the illumination container using an illuminator device with LED light (e.g., narrow bandwidth) having peak wavelength between 340-350 nm. Samples were collected both pre- and post-UVA illumination for HPLC analysis of amotosalen concentration.
From the multiple studies above, UVA light doses that provided low residual amotosalen levels (e.g., less than 7.5 μM) post-UVA treatment were selected for each specified platelet volume. These light doses are shown in Table 1 below, together with a corresponding measured volume of platelets, which the light dose may be used in conjunction with. This exemplary light dose and volume relationship identified in the studies may be further defined in the graph of FIG. 4A, which plots UVA light dose versus volume for achieving low residual amotosalen levels.
Each of the 40 μM, 50 μM, 60 μM and 70 μM test conditions used 250 mL sample volumes and UVA light doses of 3.8 J/cm^2. Amotosalen concentrations were determined before and after illumination with UVA.

[2] = S-59 photoconversion in platelets after dosing-device delivery, HPLC pre- and post-illumination; assay type: physicochemical; details: target 55 μM
Procedure: After confirming the accuracy of S-59 dosing into PAS, the next study evaluated dosing of S-59 into a blood component, platelets suspended in plasma and PAS, and photoconversion of S-59 post-UVA treatment to determine residual S-59 levels and generate (e.g., plot) a volume to light dose curve, similar to Example 1. Different size illumination containers (1.0 L and 1.3 L) were evaluated with multiple different platelet volumes and multiple different UVA light doses used for photochemical treatment of each volume and container size.
More specifically, platelets suspended in […]/53% PAS at volumes of 200 mL, 250 mL or 300 mL in a 1.0 L illumination container, and 300 mL, 350 mL or 450 mL in a 1.3 L illumination container, were dosed at varying input volumes of the S-59 psoralen compound to achieve a target final concentration of 55 μM. Samples were taken to confirm pre-illumination S-59 concentration and each of the S-59 containing platelet volumes was then illuminated with different light doses as shown in the following Tables 8A and 8B using an illuminator device with LED light sources (e.g., narrow bandwidth) having peak wavelength between 340-350 nm.
Pathogen inactivation of both viruses and bacteria was also tested using dosing device system-based quantized dosing of amotosalen and the treatment parameters described above. In one study, four units of platelets in 47% plasma/53% PAS at a higher 450 mL volume were inoculated in a 1.3 L illumination container with bluetongue virus (BTV) at a target pathogen input concentration of approximately 5.0 log PFU/mL per unit and dosed with amotosalen (S-59) to achieve at a target concentration of 55 μM. The units were mixed, and samples were collected from each unit prior to UV illumination to determine pre-treatment viral titers and S-59 concentration. The BTV-contaminated platelet units were then subjected to a UVA light dose of 6.3 J/cm^2 using an illuminator with LED light sources having peak wavelength between 340-350 nm. Samples were collected post-illumination, and both the pre- and post-UVA illumination samples were analyzed by standard plaque assay to determine the level of virus inactivation and by HPLC to determine the S-59 concentration.
A similar study was performed with the bacterium Klebsiella pneumoniae. Four units of platelets in 47% plasma/53% PAS at a volume of 450 mL were inoculated in a 1.3 L illumination container with an overnight culture of Klebsiella pneumoniae at a target input pathogen concentration of approximately 8 log CFU/mL per unit and dosed with S-59 to achieve a target concentration of 55 μM. Samples were collected pre- and post-UVA illumination with a light dose of 6.3 J/cm^2 for determination of bacterial titers by standard colony forming unit assay and S-59 concentration by HPLC.

Cc1oc2c(C)c3oc(=O)cc(C)c3cc2c1COCCN [S-59, 3-(2-aminoethoxymethyl)-2,5,9-trimethylfuro[3,2-g]chromen-7-one]
Post-UVA S-59 ([1]; 200 mL, target 70 μM, UVA 3.2 J/cm^2): 4.5 ± 1.5 µM | Post-UVA S-59 ([1]; 250 mL, target 70 μM, UVA 3.8 J/cm^2): 5.0 ± 1.1 µM | Post-UVA S-59 ([1]; 300 mL, target 70 μM, UVA 4.5 J/cm^2): 5.1 ± 1.3 µM | Post-UVA S-59 ([1]; 350 mL, target 70 μM, UVA 5.2 J/cm^2): 5.0 ± 0.6 µM | Post-UVA S-59 ([1]; 400 mL, target 70 μM, UVA 6.0 J/cm^2): 4.4 ± 0.8 µM | Post-UVA S-59 ([1]; 450 mL, target 70 μM, UVA 6.4 J/cm^2): 5.2 ± 0.8 µM | Post-UVA residual amotosalen concentration ([1]; target 40 μM, 250 mL, UVA 3.8 J/cm^2): 2.3 ± 0.7 µM | Post-UVA residual amotosalen concentration ([1]; target 50 μM, 250 mL, UVA 3.8 J/cm^2): 3.0 ± 0.8 µM | Post-UVA residual amotosalen concentration ([1]; target 60 μM, 250 mL, UVA 3.8 J/cm^2): 3.9 ± 1.4 µM | Post-UVA residual amotosalen concentration ([1]; target 70 μM, 250 mL, UVA 3.8 J/cm^2): 5.0 ± 1.1 µM | Post-UVA S-59 ([2]; 1.0 L container, 200 mL platelets, 2.8 J/cm^2): 5.22 ± 0.50 µM | Post-UVA S-59 ([2]; 1.0 L container, 200 mL platelets, 3.0 J/cm^2): 4.40 ± 0.64 µM | Post-UVA S-59 ([2]; 1.0 L container, 200 mL platelets, 3.2 J/cm^2): 3.71 ± 0.07 µM | Post-UVA S-59 ([2]; 1.0 L container, 200 mL platelets, 3.4 J/cm^2): 3.09 ± 0.18 µM | Post-UVA S-59 ([2]; 1.0 L container, 250 mL platelets, 3.4 J/cm^2): 4.25 ± 0.13 µM | Post-UVA S-59 ([2]; 1.0 L container, 250 mL platelets, 3.6 J/cm^2): 3.83 ± 0.74 µM | Post-UVA S-59 ([2]; 1.0 L container, 250 mL platelets, 3.8 J/cm^2): 3.81 ± 0.49 µM | Post-UVA S-59 ([2]; 1.0 L container, 250 mL platelets, 4.0 J/cm^2): 3.11 ± 1.18 µM | Post-UVA S-59 ([2]; 1.0 L container, 300 mL platelets, 4.1 J/cm^2): 7.13 ± 2.95 µM | Post-UVA S-59 ([2]; 1.0 L container, 300 mL platelets, 4.3 J/cm^2): 6.85 ± 3.00 µM | Post-UVA S-59 ([2]; 1.0 L container, 300 mL platelets, 4.6 J/cm^2): 2.86 ± 1.36 µM | Post-UVA S-59 ([2]; 1.0 L container, 300 mL platelets, 4.8 J/cm^2): 3.63 ± 1.66 µM | Post-UVA S-59 ([2]; 1.3 L container, 300 mL platelets, 4.1 J/cm^2): 4.64 ± 0.13 µM | Post-UVA S-59 ([2]; 1.3 L container, 300 mL platelets, 4.3 J/cm^2): 3.43 ± 1.30 µM | Post-UVA S-59 ([2]; 1.3 L container, 350 mL platelets, 4.8 J/cm^2): 3.54 ± 1.01 µM | Post-UVA S-59 ([2]; 1.3 L container, 350 mL platelets, 5.0 J/cm^2): 2.98 ± 0.91 µM | Post-UVA S-59 ([2]; 1.3 L container, 450 mL platelets, 6.1 J/cm^2): 3.79 ± 0.49 µM | Post-UVA S-59 ([2]; 1.3 L container, 450 mL platelets, 6.3 J/cm^2): 3.56 ± 0.37 µM | Post-UVA S-59 ([2]; BTV-inoculated units, 450 mL platelets, 1.3 L container, 6.3 J/cm^2): 3.0 ± 0.7 µM | Post-UVA S-59 ([2]; K. pneumoniae-inoculated units, 450 mL platelets, 1.3 L container, 6.3 J/cm^2): 3.2 ± 0.5 µM
